The text below walks through data of patent publication US4710571A, “1H-imidazol-1-ethanol esters” (Gist-Brocades N.V., priority 1983, dated 1987).

Data set [1] concerns ear sebaceous glands. The data set is described as follows: lipid (sebum) synthesis in ear sebaceous glands of androgen-stimulated female hamsters, ear biopsies incubated with radioactive acetate. The format is in vivo, hamster. The following applies: for lipid synthesis inhibition / inhibition in vivo at 100 µg/day: dose 100 μg per day; for lipid synthesis inhibition / inhibition in vivo at 100 µg/day / inhibition in vivo at 500 µg/day: androgen-stimulated female hamsters, percentages may rise over 100%; for inhibition in vivo at 500 µg/day: dose 500 μg per day. The protocol:
The sebum synthesis inhibiting activities of 1H-imidazole-1-ethanol and the esters of formula I were established in a number of animal species and particularly in the hamster much research has been carried out. Androgens administered to female hamsters stimulate the sebum synthesis in ear sebaceous glands and the extent of sebum synthesis is determined by incubating ear biopsies with radioactive acetate (Hall D. W. R. et al, Hormonal Control of Hamster Ear Sebaceous Gland Lipogenesis, Arch. Dermatol Res., 275, 1 (1983)). The test was based on the conversion of the added radioactive acetate into lipids which after extraction with hexane can be determined in a scintillation counter. In the following Table, the inhibition percentages of a number of substances are shown and the percentages may rise over 100%. A very strong activity of a compound will inhibit both the activity stimulated by androgen and the basal sebum synthesis activity of the sebaceous gland.

In data set [2] the test system is sebum secretion. The data set can be described thus: inhibition of sebum secretion in humans. The format is in vivo, human.
Data set [3] in a line: penetration of the skin. The format is in vivo, human. The following applies: in humans.
Data set [4] is described as follows: skin irritation. The format is in vivo, human. Conditions: in humans.
In data set [5] the test system is lipid synthesis in other organs. The data set can be described thus: lipid synthesis inhibition in organs other than the sebaceous glands. It counts as in vivo. Conditions: animal tests.
Data set [6] relates to hormonal activity. The data set is described as follows: hormonal activity in animal tests. The format is in vivo.

Where a name gives a salt, the structure may show the parent alone.

For `O=C(OCCn1ccnc1)c1ccc(Cl)cc1Cl` [2,4-Cl2 C6 H3, base], the lipid synthesis inhibition in data set [1] was 60%.

Turning to `O=C(O)/C=C\C(=O)O.O=C(OCCn1ccnc1)c1ccc(Cl)cc1Cl` [2,4-Cl2 C6 H3, maleate, 2-(1H-imidazol-1-yl)-ethyl 2,4-dichlorobenzoate (Z)-2-butenedioate(1:1)], the lipid synthesis inhibition in data set [1] came out at 37%.

`O=C(OCCn1ccnc1)c1cccs1` [2-thiophene, 2-(1H-imidazol-1-yl)-ethyl 2-thiophenecarboxylate]: the inhibition in vivo at 100 µg/day in data set [1] (Mesocricetus auratus) was found to be 89%.

`O=C(OCCn1ccnc1)c1ccc(C(F)(F)F)cc1` [4-CF3 C6 H4]: the inhibition in vivo at 500 µg/day in data set [1] (Mesocricetus auratus) was 70%.

On to `Cc1ccc(C(=O)OCCn2ccnc2)cc1` [4-CH3 C6 H4, base], for which the inhibition in vivo at 100 µg/day in data set [1] (Mesocricetus auratus) amounted to 91%.

As to `Cc1ccc(C(=O)OCCn2ccnc2)cc1` [4-CH3 C6 H4, maleate], the inhibition in vivo at 500 µg/day in data set [1] (Mesocricetus auratus) amounted to 92%.

On to `COc1ccc(C(=O)OCCn2ccnc2)cc1` [4-CH3 OC6 H4], for which, in data set [1] (Mesocricetus auratus), the inhibition in vivo at 100 µg/day turned out to be 83%.

For the compound `O=C(OCCn1ccnc1)c1ccc(Cl)cc1` [4-ClC6 H4], the inhibition in vivo at 500 µg/day in data set [1] (Mesocricetus auratus) amounted to 49%.

Turning to `O=C(OCCn1ccnc1)c1ccncc1` [4-pyridyl], in data set [1] (Mesocricetus auratus), the inhibition in vivo at 100 µg/day came to 44%.

As for `CC(C)(C)c1ccc(C(=O)OCCn2ccnc2)cc1` [4-tBuC6 H4, HCl], the inhibition in vivo at 500 µg/day in data set [1] (Mesocricetus auratus) was found to be 81%.

`CC(C)(C)c1ccc(C(=O)OCCn2ccnc2)cc1` [4-tBuC6 H4, base]: the inhibition in vivo at 100 µg/day in data set [1] (Mesocricetus auratus) came out at 67%.

For `CCCC(=O)OCCn1ccnc1` [(CH2)2 CH3], the inhibition in vivo at 100 µg/day in data set [1] (Mesocricetus auratus) came out at 106%.

For `CC(C)(C)C(=O)OCCn1ccnc1` [(CH3)3 --C--], the inhibition in vivo at 100 µg/day in data set [1] (Mesocricetus auratus) stood at 72%.

Consider `O=C(CCc1ccccc1)OCCn1ccnc1` [C6 H5 (CH2)2], for which the inhibition in vivo at 100 µg/day in data set [1] (Mesocricetus auratus) amounted to 76%.

For the compound `O=C(C=Cc1ccccc1)OCCn1ccnc1` [C6 H5 --CH=CH], in data set [1] (Mesocricetus auratus), the inhibition in vivo at 100 µg/day is 59%.

For `O=C(OCCn1ccnc1)c1ccccc1` [C6 H5, 2-(1H-imidazol-1-yl)-ethyl benzoate], the inhibition in vivo at 100 µg/day in data set [1] (Mesocricetus auratus) turned out to be 82%. For the same compound, in data set [2], the “inhibition of the sebum secretion” value was “good inhibition of the sebum secretion”. Besides, the “penetration of the skin” value in data set [3] is given as “good penetration of the skin”. The irritation result in data set [4] is “little irriation”. In data set [5], the “lipid synthesis inhibition in other organs” value is “no lipid synthesis inhibition in other organs”. The hormonal activity result in data set [6] is reported as “no lipid synthesis inhibition in other organs or hormonal activity were found”.

As for `CCCCCCCCCCCCCCCC(=O)OCCn1ccnc1` [CH3 (CH2)14 --, 2-(1H-imidazol-1-yl)-ethyl hexadecanoate ethanedioate (1:1)], in data set [1] (Mesocricetus auratus), the inhibition in vivo at 100 µg/day was found to be 44%.

As to `CC(=O)OCCn1ccnc1` [CH3], the inhibition in vivo at 100 µg/day in data set [1] (Mesocricetus auratus) was found to be 82%.

Take `OCCn1ccnc1` [imidazolethanol, 1H-imidazole-1-ethanol]: the inhibition in vivo at 1000 µg/day in data set [1] (Mesocricetus auratus, read-out: lipid synthesis inhibition) came out at 37%.

Turning to `CC1=C(/C=C/C(C)=C/C=C/C(C)=C/C(=O)OCCn2ccnc2)C(C)(C)CCC1` [retinoic acid, 2-(1H-imidazol-1-yl)-ethyl retinoate ethanedioate (2:1)], the inhibition in vivo at 100 µg/day in data set [1] (Mesocricetus auratus) was determined as 39%.
